Reference: patent US20080003305A1, “PROCESS AND COMPOSITIONS FOR THE DISINFECTION OF WATERS” (BROMINE COMPOUNDS LIMITED, priority 1991, published 2008)

Key:
[1] = test system: biofilm, slime and algae growth; assay: Field experiment, cooling tower 2 (corn processing plant); conditions: BCDMH 1.50-2.26 kg/day daily
Experimental: • Corn processing plant. • Contained volume: 20 m^3 • Circulation rate: 300 m^3/h • pH: 7.5-8.0 • Water temperature: 36° C.-57° C.
This tower was treated with BCDMH (1.50-2.26 kg/day) daily. Due to a very high organic load in the water, growth of biofilm was very fast.

[2] = test system: biofouling and growth of algae; assay: Field experiment, cooling tower 1
Experimental: • Cooling tower; contained volume 1000 m^3 • Circulation rate 500 m^3/h • Scale and corrosion inhibitor: CWC: 100 mg/l
The tower was controlled on low level (0.6-1.2 kg/day) of BCDMH feed. Use of BCDMH was effective as long as make-ups were softened in ion-exchangers.
The system was shock-fed with NH4Br+NaOCl. Overall dosage: 75 liters NaOCl (10%) 12.6 kg NH4Br. The mixture was fed during 1.5 hours.
A slug dose of 25 liters NaOCl (10% as Cl2) (+4.2 kg NH4Br) was then fed to the cooling tower once in two to three days. […] A measurable residue of 0.6-0.4 ppm (as total chlorine) was measured in the water 24 and 48 hours after feeding the mixture.

[3] = test system: Pseudomonas sp.; assay: Efficacy of biocides in the presence of anti-scale and corrosion inhibiting treatment (CWC); format: cell-based; conditions: dose 4 mg/l; pH 9.0; contact time 6 hours
Source text: Efficacy of Biocides in the Presence of Anti-Scale and Corrosion Inhibiting Treatment (CWC)
Stock concentration: 0.5% as Cl2
Efficacy against pseudomonas sp.

[4] = test system: MOs in starch sizing mixture; assay: Efficacy of oxidizing and non-oxidizing biocides in a starch sizing mixture (paper industry); format: cell-based; conditions: 30 ppm active ingredient, 60° C.
Experimental: Efficacy of Oxidizing and Non-Oxidizing Biocides is a Starch Sizing Mixture (Paper Industry)
Efficacy was measured at 60° C.
NH4Br+NaOCl: stock concentration 0.1%.
Dosage: 30 ppm active ingredient.
Incubation temperature 60° C.

[5] = test system: total aerobic viable counts; assay: Efficacy of oxidizing biocides in water taken from a paper mill (thick stock of pulp slurry); format: cell-based; conditions: 15 mg/l as Cl2; 30 minutes
Experimental: Efficacy of Oxidizing Biocides in Water Taken from a Paper Mill (Thick Stock of Pulp Slurry)
Microorganisms were incubated at 37° C. (total aerobic viable counts).
Concentration of stock solution: 0.1% as Cl2.

[6] = test system: fungi; assay: Efficacy in domestic waste containing a high concentration of amines: fungi; format: cell-based; conditions: 60 ppm; contact time 10 minutes; N as NH3 50mg/l; pH 6.10
Experimental: (§1) Efficacy of a Series of Biocides in Domestic Waste Containing a High Concentration of Amines
(§2) Incubation temperature: 27° C.
(§3) Stock concentration: 0.2%

[7] = test system: aerob. MOs; assay: Efficacy in domestic waste containing a high concentration of amines: aerobic MOs; format: cell-based; conditions: 60 ppm; contact time 10 minutes; N as NH3 50mg/l; pH 6.10
Experimental: as §1, §2, §3

[8] = test system: anaer. MOs; assay: Efficacy in domestic waste containing a high concentration of amines: anaerobic MOs; format: cell-based; conditions: 60 ppm; contact time 10 minutes; N as NH3 50mg/l; pH 6.10
Experimental: as §1, §2, §3

[9] = Residue as Cl2 in domestic waste containing a high concentration of amines; format: physicochemical; conditions: 60 ppm
Experimental: as §1, §2, §3

Structure (SMILES) | control of daily grown films [1] | efficacy against heavy slimes covering the cooling tower [1] | prevention of biofouling and growth of algae ([2]; BCDMH 4-6 kg/day, CWC (100 mg/l of phosphonate)) | control of the tower ([2]; BCDMH feed 0.6-1.2 kg/day, make-ups softened in ion-exchangers) | Survivors in CWC (100 mg/l) [3] | Survivors in buffer [3] | Surviving MOs after time (hours): 4 ([4]; 4 hours) | Surviving MOs after time (hours): 28 ([4]; 28 hours) | Surviving MOs after time (hours): 48 ([4]; 48 hours) | Surviving MOs after time (hours): 72 ([4]; 72 hours) | Viable counts after time (minutes): 30 [5] | Surviving MOs after 10 minutes fungi [6] | Surviving MOs after 10 minutes aerob. [7] | Surviving MOs after 10 minutes anaer. [8] | Residue free as Cl2 after 10 minutes ([9]; free) | Residue (total) as Cl2 after 10 minutes ([9]; total)
CC1(C)C(=O)N(Cl)C(=O)N1Br [BCDMH] | effective in controlling the daily grown films | not effective against heavy slimes | did not suffice to prevent biofouling and growth of algae | effective | 3 × 10^5 | 0 | – | – | – | – | – | – | – | – | – | –
N#CC(Br)(Br)C(N)=O [DBNPA] | – | – | – | – | 4 × 10^6 | 0 | 3 × 10^4 cfu/ml | 2 × 10^5 cfu/ml | 2 × 10^5 cfu/ml | 1 × 10^5 cfu/ml | 2 × 10^3 cfu/ml | 0 cfu/ml | 2 × 10^6 cfu/ml | 5 × 10^5 cfu/ml | 0 (0) | 0 (0)
